Here are results for twelve compounds from patent US6984649B1, “Pyridine derivatives” (Bayer Aktiengesellschaft, priority 2000, dated 2006).

pIC50: −log10 of the molar value. Where a name gives a salt, the structure may show the parent alone.

In this experiment the target is T1, human IKK-β (Homo sapiens, UniProt O14920).
T1 construct: A cDNA fragment encoding human IKK-β open reading frame was generated by PCR; His tag (from pcDNA3.1/His C); made in house; host or cells: Sf21 insect cells (baculovirus); substrate made in E. coli
T1 sequence (O14920 1-756): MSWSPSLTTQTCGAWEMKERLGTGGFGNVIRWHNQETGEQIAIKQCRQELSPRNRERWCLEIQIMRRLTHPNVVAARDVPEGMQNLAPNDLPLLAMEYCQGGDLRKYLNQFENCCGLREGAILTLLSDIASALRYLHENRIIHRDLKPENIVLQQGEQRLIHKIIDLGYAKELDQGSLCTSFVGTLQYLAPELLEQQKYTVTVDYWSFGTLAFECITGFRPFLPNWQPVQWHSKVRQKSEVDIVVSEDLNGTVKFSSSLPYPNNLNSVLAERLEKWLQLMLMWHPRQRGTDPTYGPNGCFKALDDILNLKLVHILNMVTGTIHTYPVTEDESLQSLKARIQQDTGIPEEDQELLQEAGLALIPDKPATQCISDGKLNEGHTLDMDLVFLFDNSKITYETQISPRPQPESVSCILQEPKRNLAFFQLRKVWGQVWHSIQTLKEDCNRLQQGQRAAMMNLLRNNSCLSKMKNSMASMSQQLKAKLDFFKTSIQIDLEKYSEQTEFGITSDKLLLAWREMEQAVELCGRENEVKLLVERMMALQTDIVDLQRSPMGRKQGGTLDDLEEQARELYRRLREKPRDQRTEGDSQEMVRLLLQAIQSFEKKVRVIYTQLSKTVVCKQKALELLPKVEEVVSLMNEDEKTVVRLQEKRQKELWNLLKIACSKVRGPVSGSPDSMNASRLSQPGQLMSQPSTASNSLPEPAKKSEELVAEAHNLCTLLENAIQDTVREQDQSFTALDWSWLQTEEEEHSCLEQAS
The experiment is described as follows: IKK-β kinase inhibitory assay. It is filed as biochemical. The following applies: compounds as yielded by solid phase synthesis, purity about 40 to 90%, read-out: In vitro activity grade (In vitro IC50). A digest of the protocol: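 Radiometric read-out: streptavidin capture of 33P-labelled bio-GST-IκBα(1-54), 0.2 μM, after a 2 h room-temperature reaction started with ATP/[γ-33P]ATP. Enzyme was recombinant His-tagged human IKK-β expressed in Sf21 insect cells, used at 0.6 μg/ml in Tris-HCl pH 7.6/MgCl2 kinase buffer. Compounds added in 2.5% DMSO.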
As to `N#Cc1c(C2CCCNC2)cc(-c2c(O)cccc2OCCN2CCCCCC2)nc1N` (stereo not drawn) [Example 2-86], the pIC50 was 5.00 to 5.70.
With `N#Cc1c(C2CCCNC2)cc(-c2c(O)cccc2OCCN2CCCC2)nc1N` (stereo not drawn) [Example 2-87], the pIC50 is 5.00 to 5.70.
As for `CCOC(=O)N1Cc2c(C3CCCNC3)cc(-c3c(O)cccc3OCC3CC3)nc2NC1=O` (stereo not drawn) [Example 24-2, ethyl 7-[2-(cyclopropylmethoxy)-6-hydroxyphenyl]-2-oxo-5-(3-piperidinyl)-1,4-dihydropyrido[2,3-d]pyrimidine-3(2H)-carboxylate hydrochloride], the figure is > 6.30.
On to `O=C1Nc2nc(-c3c(O)cccc3OCC3CC3)cc(C3CCCNC3)c2CN1C(=O)NC1CCCCC1` (stereo not drawn) [Example 24-3, N-cyclohexyl-7-[2-(cyclopropylmethoxy)-6-hydroxyphenyl]-2-oxo-5-(3-piperidinyl)-1,4-dihydropyrido[2,3-d]pyrimidine-3(2H)-carboxamide hydrochloride], for which the pIC50 is > 6.30.
As for `CS(=O)(=O)N1Cc2c(C3CCCNC3)cc(-c3c(O)cccc3OCC3CC3)nc2NC1=O` (stereo not drawn) [Example 24-4, 7-[2-(cyclopropylmethoxy)-6-hydroxyphenyl]-3-(methylsulfonyl)-5-(3-piperidinyl)-3,4-dihydropyrido[2,3-d]pyrimidin-2(1H)-one hydrochloride], the figure is > 6.30.
On to `CCOC(=O)c1cc2c(C3CCCNC3)cc(-c3ccccc3O)nc2[nH]c1=O` (stereo not drawn) [Example 25-1, ethyl 7-(2-hydroxyphenyl)-2-oxo-5-(3-piperidinyl)-1,2-dihydro-1,8-naphthyridine-3-carboxylate hydrochloride], for which the pIC50 is > 6.30.
As for `O=c1[nH]c2nc(-c3c(O)cccc3OCC3CC3)cc(C3CCCNC3)c2cc1F` (stereo not drawn) [Example 25-2, 7-[2-(cyclopropylmethoxy)-6-hydroxyphenyl]-3-fluoro-5-(3-piperidinyl)-1,8-naphthyridin-2(1H)-one hydrochloride], the figure is > 6.30; as for `NC(=O)c1cc2c(C3CCNCC3)cc(-c3c(O)cccc3OCC3CC3)nc2[nH]c1=O` [Example 25-3, 7-[2-(cyclopropylmethoxy)-6-hydroxyphenyl]-2-oxo-5-(4-piperidinyl)-1,2-dihydro-1,8-naphthyridine-3-carboxamide hydrochloride], > 6.30.
As for `O=c1ccc2c(C3CCCNC3)cc(-c3c(O)cccc3OCC3CC3)nc2[nH]1` (stereo not drawn) [Example 25-4, 7-[2-(cyclopropylmethoxy)-6-hydroxyphenyl]-5-(3-piperidinyl)-1,8-naphthyridin-2(1H)-one hydrochloride], the pIC50 is > 6.30.
`CCOC(=O)C1Cc2c(C3CCCNC3)cc(-c3ccccc3O)nc2NC1=O` (stereo not drawn) [Example 26-1, ethyl 7-(2-hydroxyphenyl)-2-oxo-5-(3-piperidinyl)-1,2,3,4-tetrahydro-1,8-naphthyridine-3-carboxylate]: the pIC50 was > 6.30.
For `NC(=O)C1Cc2c(C3CCNCC3)cc(-c3c(O)cccc3OCC3CC3)nc2NC1=O` (stereo not drawn) [Example 26-2, 7-[2-(cyclopropylmethoxy)-6-hydroxyphenyl]-2-oxo-5-(4-piperidinyl)-1,2,3,4-tetrahydro-1,8-naphthyridine-3-carboxamide hydrochloride], the pIC50 was > 6.30.
As for `O=C1CCc2c(C3CCCNC3)cc(-c3ccccc3O)nc2N1` (stereo not drawn) [Example 27-1, 7-(2-hydroxyphenyl)-5-(3-piperidinyl)-3,4-dihydro-1,8-naphthyridin-2(1H)-one hydrochloride], the figure is > 6.30.
